# Source: US20160138057A1, “Methods for enhancing alpha-ketoglutarata production in Yarrowia lipolytica” (priority 2014, published 2016)
# Experiments:
# [1] = system: recombinant Y. lipolytica (Y. lipolytica-GDH2); assay: Intracellular glutamate content of recombinant strain fermented with L-methionine imide; format: cell-based, Yarrowia lipolytica
# Procedure: Determination of GDH catalytic activity and intracellular amino acid content: cells were collected by centrifugation in the exponential growth phase and washed by 0.9% saline, then suspended by 10 mL buffer (0.1 M KH2PO4-K2HPO4, 1 mM EDTA, 0.01 mM DTT, pH 7.5). Pickling glass beads was added for grinding for 5 min at 4° C., and then centrifuged at 13000×g for 10 min. The supernatant was used for the determination of catalytic activity of GDH and the intracellular amino acid content.
# Intracellular glutamate and glutamine was determinated by the following steps: 200 μl cell disruption supernatant and 800 μL 5% trichloroacetic acid was sequentially added to an 1 mL EP tube and standed for 5 min. 1 mL sample was filtered by 0.22 μm aqueous filter head and then centrifuged at 10000 rpm for 10 min. The amino acid content of the treated sample was measured by HPLC.
# The HPLC conditions were as follows: pre-column derivatization of sample was carried out by […] (OPA) and 9-Fluorenylmethyl Chloroformate. […]
# The wild type Y. lipolytica WSH-Z06 and the recombinant strain Y. lipolytica-GDH2 were incubated in 500 mL flasks with 50 mL fermentation medium at 28° C., 200 rpm for 96 hours at the same time. […] The glutamate contents were quantified by the methods described above.
# [2] = system: recombinant Y. lipolytica (Y. lipolytica-GDH2); assay: Extracellular α-KG accumulation of recombinant strain fermented with L-methionine imide; format: cell-based, Yarrowia lipolytica
# Procedure: Fermentation medium: 36.1 mg·L^−1 L-methionine imine, 100 g·L^−1 glycerol, 3 g·L^−1 (NH4)2SO4, 3 g·L^−1 KH2PO4, 1.2 g·L^−1 MgSO4·7H2O, 0.5 g·L^−1 NaCl, 0.1 g·L^−1 K2HPO4, 2×10^−7 g·L^−1 thiamine hydrochloride, pH 4.5, and then sterilized at 115° C. for 15 min. CaCO3 sterilized at 121° C. for 30 min was added to 20 g·L^−1 before inoculation.
# Extracellular α-KG was quantified by HPLC. Appropriate supernatant of fermentation broth centrifuged at 13000×g was diluted 50-fold with ultrapure water and filtrated by 0.22 μm filter for HPLC analysis. The column was Aminex HPX-87H ion exchange column and 5 mmol·L^−1 sulfuric acid solution (550 μL concentrated sulfuric acid volumed to 2 L) filtrated by 0.22 μm filter and degassed was used as mobile phase. The velocity of flow was 0.6 mL·min^−1 with a column temperature at 35° C. and a injection volume of 10 μL. The wavelength of UV detector was 210 nm.
# α-KG was produced as the method described above. The wild type Y. lipolytica WSH-Z06 and the recombinant strain Y. lipolytica-GDH2 were incubated in 500 mL flasks with 50 mL fermentation medium containing L-methionine imide at 28° C., 200 rpm for 144 hours at the same time to accumulate α-KG extracellular.
smiles,measurement,setting,value
CSCC[C@H](N)C(N)=O [L-methionine imide],content of glutamate intracellular,[1]; 0.2 mM L-methionine imide added during fermentation of the recombinant strain,0.99 μmol per mg dry cells weight (DCW)
same,increase of intracellular glutamate content,"[1]; 0.2 mM L-methionine imide, recombinant strain, versus wild type strain",86.3%
same,increase of extracellular α-KG accumulation,"[2]; 0.2 mM L-methionine imide, versus wild type strain",32.4%
same,accumulation of α-KG extracellular,"[2]; fermentation medium containing L-methionine imide (0.2 mM), 28° C., 200 rpm, 144 hours",19.2 g/L
